# Laboratory results: the Bradley open melting point set (2014)
row,Structure (SMILES),melting point [°C]
1,CCOC(=O)c1ccc(-n2c(C)cc(C=O)c2C)cc1 [OSM-S-46],113
2,O=C1CS/C(=N\c2ccccc2)N1c1ccccc1 [OSM-S-47],176
3,CC(=O)N(C1=NC(=O)/C(=C/c2cc(C)n(-c3ccc(C)cc3)c2C)S1)c1ccccc1 [OSM-S-50],257
4,Cc1cc(/C=C2\S/C(=N\c3ccccc3)N(c3ccccc3)C2=O)c(C)n1-c1ccc(C(F)(F)F)cc1 [OSM-S-52],226
5,ClC(Cl)=C(Cl)c1c(Cl)c(Cl)c(Cl)c(Cl)c1Cl [Octachlorostyrene],95
6,CC1COc2c(N3CCN(C)CC3)c(F)cc3c(=O)c(C(=O)O)cn1c23 (centres undefined) [Ofloxacin],254
7,COc1ccc2[nH]c([S+]([O-])Cc3ncc(C)c(OC)c3C)nc2c1 (centres undefined) [Omeprazole],156
8,C1CO1 [Oxirane],-111
9,O=S(=O)=O [Oxosulfane dioxide],16.8
10,CN(C)[C@@H]1C(O)=C(C(N)=O)C(=O)[C@@]2(O)C(O)=C3C(=O)c4c(O)cccc4[C@@](C)(O)[C@H]3[C@H](O)[C@@H]12 [Oxytetracycline],183
11,COc1ccc(C(=O)O)cc1 [P-Anisic Acid],185
12,Clc1ccc(-c2cc(Cl)ccc2Cl)cc1 [PCB-31],65
13,Clc1ccc(-c2cc(Cl)c(Cl)cc2Cl)cc1Cl [PCB-118],110
14,Clc1cc(Cl)c(-c2cc(Cl)c(Cl)cc2Cl)cc1Cl [PCB-153],103
15,Oc1cc(Cl)c(-c2c(Cl)cc(Cl)cc2Cl)c(Cl)c1O [PCB-155],113
16,Clc1cc(Cl)c(-c2cc(Cl)c(Cl)c(Cl)c2Cl)cc1Cl [PCB-180],112
17,Clc1cc(-c2cc(Cl)c(Cl)c(Cl)c2Cl)c(Cl)c(Cl)c1Cl [PCB-194],157
18,C=CCCC [Pent-1-ene],-165
19,O=[N+]([O-])c1c(Cl)c(Cl)c(Cl)c(Cl)c1Cl [Pentachloronitrobenzene],144
20,Oc1c(Cl)c(Cl)c(Cl)c(Cl)c1Cl [Pentachlorophenol],174
21,Cc1c(Cl)c(Cl)c(Cl)c(Cl)c1Cl [Pentachlorotoluene],225
22,O=C(O)C(F)(F)C(F)(F)C(F)(F)C(F)(F)C(F)(F)C(F)(F)C(F)(F)F [Pentadecafluorooctanoic acid],55.5
23,OCC(CO)(CO)CO [Pentaerythritol],260
24,"CC(=O)CC(C)=O [Pentane-2,4-dione]",-23
25,CCCCC [Pentane],-130

row,Structure (SMILES),melting point [°C]
1,[O-][I+3]([O-])([O-])O [Periodic acid],122
2,CCOc1ccc(NC(C)=O)cc1 [Phenacetin],135
3,CCC1(c2ccccc2)C(=O)NC(=O)NC1=O [Phenobarbital],176
4,CNC[C@H](O)c1cccc(O)c1 [Phenylephrine],142
5,"O=C(NC(C(=O)O)c1ccccc1)OCC(Cl)(Cl)Cl (centres undefined) [Phenyl{[(2,2,2-trichloroethoxy)carbonyl]amino}acetic acid]",142
6,O=C(O)c1ccccc1C(=O)O [Phthalic Acid],230
7,O=c1[nH]c2ccccc2n1C1CCN(CCCC(c2ccc(F)cc2)c2ccc(F)cc2)CC1 [Pimozide],216
8,CN1/C(=C(\O)Nc2ccccn2)C(=O)c2ccccc2S1(=O)=O [Piroxicam],198
9,CC(Cc1ccccc1)NCCC(c1ccccc1)c1ccccc1 (centres undefined) [Prenylamine],36.5
10,CCCN(CCC)S(=O)(=O)c1ccc(C(=O)O)cc1 [Probenecid],195
11,CC(=O)[C@H]1CC[C@H]2[C@@H]3CCC4=CC(=O)CC[C@]4(C)[C@H]3CC[C@]12C [Progesterone],121
12,N#Cc1ccc2c(c1)N(CCCN1CCC(O)CC1)c1ccccc1S2 [Propericiazine],116
13,CCC(=O)O [Propionic acid],-20.8
14,CCCOC(=O)c1ccc(O)cc1 [Propyl 4-hydroxybenzoate],96.5
15,CCCOC(C)=O [Propyl Acetate],-93
16,CCCOC(C)=O [Propyl acetate],-95
17,C=CC [Propylene],-185
18,NCCCCN [Putrescine],27.5
19,NC(=O)c1cnccn1 [Pyrazinamide],192
20,c1cc2ccc3cccc4ccc(c1)c2c34 [Pyrene] [listing 1 of 2 here],151
21,c1cc2ccc3cccc4ccc(c1)c2c34 [Pyrene] [listing 2 of 2 here],150
22,[O-][n+]1ccccc1S [Pyridine-2-thiol 1-oxide],70.5
23,Cc1ncc(COP(=O)(O)O)c(C=O)c1O [Pyridoxal Phosphate],205
24,Oc1ccccc1O [Pyrocatechol],105
25,Oc1cccc2cccnc12 [Quinolin-8-ol],76

row,Structure (SMILES),melting point [°C]
1,Oc1cccc(O)c1 [Resorcinol],111
2,"Cc1ccc(S(=O)(=O)N=S(C)(C)=O)cc1 [S,S-dimethyl-N-(p-toluenesulfonyl)sulfoximine]",168
3,O=C(O)c1ccccc1O [Salicyclic acid],158
4,O=C(O)c1ccccc1O [Salicylic acid],161
5,CC(C)(C)NC(=O)[C@@H]1CC2CCCCC2CN1C[C@@H](O)[C@H](Cc1ccccc1)NC(=O)[C@H](CC(N)=O)NC(=O)c1ccc2ccccc2n1 (some centres undefined) [Saquinavir],350
6,CCC(C)(C)C(=O)O[C@H]1C[C@@H](C)C=C2C=C[C@H](C)[C@H](CC[C@@H]3C[C@@H](O)CC(=O)O3)[C@H]21 [Simvastatin],136
7,CC(=O)S[C@@H]1CC2=CC(=O)CC[C@]2(C)[C@H]2CC[C@@]3(C)[C@@H](CC[C@@]34CCC(=O)O4)[C@H]12 [Spironolactone],134
8,O=C(O)CCC(=O)O [Succinic acid],186
9,CC(=O)NS(=O)(=O)c1ccc(N)cc1 [Sulfacetamide],183
10,COc1cc(NS(=O)(=O)c2ccc(N)cc2)nc(OC)n1 [Sulfadimethoxine],204
11,Cc1ccnc(NS(=O)(=O)c2ccc(N)cc2)n1 [Sulfamerazine],235
12,COc1ccc(NS(=O)(=O)c2ccc(N)cc2)nn1 [Sulfamethoxypyridazine],182
13,COc1nccnc1NS(=O)(=O)c1ccc(N)cc1 [Sulfametopyrazine],170
14,O=C(O)CS [Sulfanylacetic acid],-16.5
15,Cc1cc(NS(=O)(=O)c2ccc(N)cc2)nc(C)n1 [Sulfisomidine],243
16,Cc1noc(NS(=O)(=O)c2ccc(N)cc2)c1C [Sulfisoxazole],194
17,O=S(=O)(O)O [Sulfuric acid],-2
18,O=C5\C=C4/C(C3CCC2(C(CCC2OC(=O)c1ccccc1)C3CC4)C)(C)CC5 (centres undefined) [Testosterone benzoate],195
19,C=CCCCCCCCCCCCC [Tetradec-1-ene],-13
20,C1CCSC1 [Tetrahydrothiophene],-96
21,O=C1CCC(N2C(=O)c3ccccc3C2=O)C(=O)N1 (centres undefined) [Thalidomide],270
22,Cn1c(=O)c2[nH]cnc2n(C)c1=O [Theophylline],270
23,CNC(=O)N(C)c1nnc(C(F)(F)F)s1 [Thiazafluron],136
24,O=c1c2ccccc2sc2ccccc12 [Thioxanthen-9-one],211
25,CCCCNC(=O)NS(=O)(=O)c1ccc(C)cc1 [Tolbutamide],128

row,Structure (SMILES),melting point [°C]
1,Cc1cccc(Nc2ccncc2S(=O)(=O)NC(=O)NC(C)C)c1 [Torasemide],164
2,C[C@]12C=CC(=O)C=C1CC[C@H]1[C@@H]3C[C@@H](O)[C@](O)(C(=O)CO)[C@@]3(C)C[C@H](O)[C@@]12F [Triamcinolone],276
3,CCCCOB(OCCCC)OCCCC [Tributyl borate],-70
4,CCCCP(CCCC)CCCC [Tributylphosphine],-60
5,CCCCCCCCCCCCCCCCCCCCCCC [Tricosane],49
6,O=C(O)C(F)(F)C(F)(F)C(F)(F)C(F)(F)C(F)(F)C(F)(F)F [Tridecafluoroheptanoic acid],30
7,CCOP(=O)(OCC)OCC [Triethyl phosphate],-56
8,O=S(=O)(O)C(F)(F)F [Trifluoromethanesulfonic acid],-40
9,O=P(Oc1ccccc1)(Oc1ccccc1)Oc1ccccc1 [Triphenyl phosphate],50.5
10,c1ccc(P(c2ccccc2)c2ccccc2)cc1 [Triphenylphosphine],80.5
11,CCCCC(CC)COP(=O)(OCC(CC)CCCC)OCC(CC)CCCC (centres undefined) [Tris(2-ethylhexyl) phosphate],-70
12,Cc1ccccc1OP(=O)(Oc1ccccc1C)Oc1ccccc1C [Tris(2-methylphenyl) phosphate],-33
13,CC(C)(C)OC(=O)NCC(=O)N(Cc1ccco1)C(C(=O)NCc1ccccc1)c1ccccc1 (centres undefined) [Ugi product 108C (UC)],147
14,CN(C)c1ccc(C(C(=O)NC(C)(C)C)N(C)C(=O)CCCc2ccc3ccc4cccc5ccc2c3c45)cc1 (centres undefined) [Ugi product 171K (UC)],194
15,CCCCNC(=O)C(c1cc(OC)cc(OC)c1)N(Cc1ccccc1)C(=O)C#Cc1ccccc1 (centres undefined) [Ugi product 173G (UC)],138
16,CCCCCCCCCCCO [Undecan-1-ol],11
17,CCCCCCCCCCC(=O)O [Undecanoic acid],28.5
18,CCCCC#N [Valeronitrile],-96
19,O=C1O[C@H]([C@@H](O)CO)C(O)=C1O [Vitamin C],191
20,c1ccc2c(c1)Cc1ccccc1O2 [Xanthene],101
21,c1cc2ccc1CCc1ccc(cc1)CC2 [[2.2]paracyclophane],286
22,O=C(O)CSc1ccc(C(F)(F)F)cc1 [[4-(trifluoromethyl)phenylthio]acetic acid],116
23,C/C(=C(/C)c1ccccc1)c1ccccc1 [[(1E)-1-Methyl-2-phenyl-1-propenyl]benzene],65
24,"ClCc1cccc(CCl)c1 [a,a'-dichloro-m-xylene]",36
